Laboratory results as given in patent US11840551B2, “Compositions and methods of modulating the immune response by activating alpha protein kinase 1” (Shanghai Yao Yuan Biotechnology Co., Ltd., priority 2017, dated 2023).

Key:
[1] = tested on: HBsAg, adw; experiment: Immunization with HBsAg, adw, specific total IgG serum titers (ELISA); format: in vivo, C57BL/6J mice; details: intradermal, adw combined with 1 nmol/dose compound 28, days 0 and 14, sera at day 35
Method: Eight-week-old C57BL/6J mice (females) were intradermally (I.D.) immunized at day 0 with HBsAg, adw (1 mg/dose), or HBsAg, adw at 1 mg/dose combined with compound 28 (1 nmol/dose). Mice were boosted with a second immunization at day 14 and the sera collected at day 35. HBsAg, adw-specific total IgG serum titers (OD450) were determined by ELISA. Anti-HBsAg, adw IgG titers were more than 2× higher when HBsAg, adw was combined with 1 nmol/dose of compound 28 than when HBsAg, adw was injected alone (FIG. 35).

[2] = tested on: eosinophils, dendritic cells, neutrophils; experiment: Porcine pancreas elastase (PPE) model, immune cells in bronchoalveolar lavage (flow cytometry); format: in vivo, C57BL/6 mice; details: 4 nmol/dose and 20 nmol/dose intraperitoneal on days -1, 0, 1; BAL on day 2
Method: Eight-week-old male C57BL/6 mice were grouped (N=8/group) and were intraperitoneally (I.P.) injected with compound 28 at 0, 4, or 20 nmol/dose on days −1, 0, and 1. In addition, mice were intratracheally (I.Tr.) administrated with 0 or 30 μg/dose of porcine pancreas elastase (PPE) dissolved in 50 μL saline on day 0. Mice were sacrificed on day 2 and the immune cells were collected by bronchoalveolar lavage (BAL). Cells were then subjected to fluorophore-conjugated antibody staining and analyzed by flow cytometry. Data were processed with a FlowJo […] (Treestar) Immune cells were gated as singlets >live cells>CD11c^highSiglecF^lowMHCII^high (dendritic cells), CD11c^lowCD11b^highLy-6G^high (neutrophils), and CD11c^lowCD11b^highLy-6G^lowSiglecF^high (eosinophils).

[3] = target: T1, ALPK1 (Mus musculus, UniProt Q9CXB8); experiment: Serum RANTES levels as marker of ALPK1 activation in vivo; set-up: species or system C57/B6 mice; details: 10 nmole subcutaneous, serum at 24 hours or 48 hours, compared to Compound 15
T1 construct: C57/B6 mice (n=3 mice/group) were injected subcutaneously; from tissue; host or cells: whole animal, C57/B6 mice
T1 sequence (Q9CXB8 1-1231): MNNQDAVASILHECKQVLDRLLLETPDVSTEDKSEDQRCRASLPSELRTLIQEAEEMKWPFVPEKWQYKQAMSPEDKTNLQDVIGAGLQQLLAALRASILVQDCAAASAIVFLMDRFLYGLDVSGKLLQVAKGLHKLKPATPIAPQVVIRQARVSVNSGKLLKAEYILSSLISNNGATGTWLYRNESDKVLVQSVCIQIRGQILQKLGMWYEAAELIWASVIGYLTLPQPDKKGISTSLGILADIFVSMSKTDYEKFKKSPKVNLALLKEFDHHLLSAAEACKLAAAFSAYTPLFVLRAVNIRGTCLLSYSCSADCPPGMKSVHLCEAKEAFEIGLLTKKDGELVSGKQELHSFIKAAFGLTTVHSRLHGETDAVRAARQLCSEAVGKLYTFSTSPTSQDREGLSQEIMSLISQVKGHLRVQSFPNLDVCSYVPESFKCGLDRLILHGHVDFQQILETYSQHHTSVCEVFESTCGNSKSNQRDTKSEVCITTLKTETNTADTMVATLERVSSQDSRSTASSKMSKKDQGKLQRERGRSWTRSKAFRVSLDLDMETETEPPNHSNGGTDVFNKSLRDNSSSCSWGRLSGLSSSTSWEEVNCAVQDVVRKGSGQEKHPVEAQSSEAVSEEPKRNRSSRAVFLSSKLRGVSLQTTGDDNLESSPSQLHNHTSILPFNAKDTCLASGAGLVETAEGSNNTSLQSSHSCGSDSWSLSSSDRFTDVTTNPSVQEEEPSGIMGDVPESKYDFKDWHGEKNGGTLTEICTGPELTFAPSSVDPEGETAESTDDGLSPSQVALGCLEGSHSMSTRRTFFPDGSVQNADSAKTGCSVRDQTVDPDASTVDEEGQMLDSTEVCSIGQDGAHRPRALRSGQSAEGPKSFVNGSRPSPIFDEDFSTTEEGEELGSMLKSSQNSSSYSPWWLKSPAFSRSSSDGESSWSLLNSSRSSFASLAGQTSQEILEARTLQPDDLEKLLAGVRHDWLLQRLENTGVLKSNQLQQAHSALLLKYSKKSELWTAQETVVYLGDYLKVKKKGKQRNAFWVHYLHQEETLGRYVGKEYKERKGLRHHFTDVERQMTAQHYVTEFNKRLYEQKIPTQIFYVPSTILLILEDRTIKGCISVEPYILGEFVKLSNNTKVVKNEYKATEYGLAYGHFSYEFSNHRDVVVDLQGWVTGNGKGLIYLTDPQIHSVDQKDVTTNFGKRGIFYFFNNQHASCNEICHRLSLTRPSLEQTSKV
Method: The ability of Compounds 15 and 28 to stimulate ALPK1 activation in vivo was tested by monitoring serum levels of the chemokine RANTES (CCLS), which is elevated upon activation of ALPK1. Briefly, C57/B6 mice (n=3 mice/group) were injected subcutaneously with PBS (negative control) or 10 nmole of Compound 15 or Compound 28. Serum was collected at 24 hours or 48 hours post injection.

[4] = tested on: HBV; experiment: HBV-AAV mouse model; format: in vivo, C57BL/6 mice
Method: Administration of Compound 28 (0.1 mg/kg, twice weekly “BIW”) led to downregulation of HBV DNA expression and a decrease in serum levels of HBsAg, and HBeAg in the HBV-AAV mouse model. At day 1, male C57BL/6 mice were intravenously injected with AAV8-1.3HBV (1×10^11 v/g). After days 28 and 31, each mouse was then intraperitoneally injected with 0.1 mg/kg compound 28 or PBS control. At day 35, mouse serum was collected for HBV DNA qPCR analysis, HBsAg and HBeAg serum analysis by ELISA.

[5] = 0.1 mg/kg intraperitoneal at days 28 and 31, serum at day 35, ELISA

## CC(=O)OC[C@H](F)[C@H]1O[C@@H](OP(=O)(O)OP(O)(=S)OC[C@H]2O[C@@H](n3cnc4c(N)ncnc43)[C@H](O)[C@@H]2O)[C@@H](OC(C)=O)[C@@H](OC(C)=O)[C@@H]1OC(C)=O (stereo partly drawn) [Compound 28, (2S,3S,4S,5S,6S)-2-((S)-2-acetoxy-1-fluoroethyl)-6-(((((((2R,3S,4R,5R)-5-(6-amino-9H-purin-9-yl)-3,4-dihydroxytetrahydrofuran-2-yl)methoxy)(hydroxy)phosphorothioyl)oxy)(hydroxy)phosphoryl)oxy)tetrahydro-2H-pyran-3,4,5-triyl triacetate]
[1]
  Anti-HBsAg, adw IgG titers relative to HBsAg, adw injected alone: more than 2 ×
[2]
  increase in the production of dendritic cells after PPE administration: significantly suppressed
  increase in the production of eosinophils after PPE administration: significantly suppressed
  increased production of neutrophils after PPE administration: also suppressed but only at the 20 nmol/dose level
[3]
  duration of immune activation (serum RANTES): showed a longer duration of immune activation
[4]; [5]
  serum levels of HBeAg: marked decrease
  serum levels of HBsAg: marked decrease
[4]; 0.1 mg/kg intraperitoneal at days 28 and 31, serum at day 35, qPCR
  HBV DNA expression: marked decrease
